Results reported in patent US20160039825A1 (BIOGEN MA INC., priority 2013, published 2016).

Target: T1, Human ATX protein (Homo sapiens, UniProt Q13822)
T1 construct: made in house
Experiment: Autotaxin (ATX) assay, FRET with FS-3 substrate
Assay type: biochemical
Details: upper bound bins (no greater than 100, 250 or 500 nM); FS-3 2 μM, ATX 1.0 μg/mL
Outline: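 Hydrolysis of the FRET substrate FS-3 (2 μM final) unquenches fluorescein, read at excitation 485 nm and emission 538 nm after 2 h at room temperature, protected from light. Purified human ATX (1.0 μg/mL) and compound were first incubated for 30 min in pH 7.4 Tris/salt buffer containing 1 mg/mL fatty acid-free BSA.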

Row | SMILES | IC50
1 | CS(=O)(=O)NC(=O)c1cc2n(n1)CCCN(C(=O)OCc1cc(C(F)(F)F)cc(C(F)(F)F)c1)C2 [Example 299, 3,5-bis(trifluoromethyl)benzyl 2-((methylsulfonyl)carbamoyl)-7,8-dihydro-4H-pyrazolo[1,5-a][1,4]diazepine-5(6H)-carboxylate] | ≤ 100 nM
2 | O=C(OCc1cc(Cl)cc(Cl)c1)N1CCCn2nc(C(=O)N3CCCC3)cc2C1 [Example 18, 3,5-Dichlorobenzyl 2-(pyrrolidine-1-carbonyl)-7,8-dihydro-4H-pyrazolo[1,5-a][1,4]diazepine-5(6H)-carboxylate] | ≤ 100 nM
3 | CCCN1CCN(c2cc3n(n2)CCCN(C(=O)OCc2cc(C(F)(F)F)cc(C(F)(F)F)c2)C3)CC1 [Example 357] | ≤ 100 nM
4 | O=C(OCc1cc(C(F)(F)F)cc(C(F)(F)F)c1)N1CCn2nc(-c3cccnc3)cc2C1 [Example 496, 3,5-bis(trifluoromethyl)benzyl 2-(pyridin-3-yl)-6,7-dihydropyrazolo[1,5-a]pyrazine-5(4H)-carboxylate] | ≤ 100 nM
5 | NC1CCN(C(=O)c2cc3n(n2)CCCN(C(=O)OCc2cc(Cl)cc(Cl)c2)C3)CC1 [Example 26, 3,5-Dichlorobenzyl 2-(4-aminopiperidine-1-carbonyl)-7,8-dihydro-4H-pyrazolo[1,5-a][1,4]diazepine-5(6H)-carboxylate] | ≤ 100 nM
6 | O=C(OCc1cc(C(F)(F)F)cc(C(F)(F)F)c1)N1CCn2cc(C(F)(F)F)nc2C1 [Example 127, 3,5-Bis(trifluoromethyl)benzyl 2-(trifluoromethyl)-5,6-dihydroimidazo[1,2-a]pyrazine-7(8H)-carboxylate] | ≤ 100 nM
7 | O=C(OCc1cc(C(F)(F)F)cc(C(F)(F)F)c1)N1CCCn2nc(N3CC4CCC(C3)N4)cc2C1 [Example 344] | ≤ 250 nM
8 | O=C(O)C1CC2CCCC(C1)N2C(=O)c1cc2n(n1)CCN(C(=O)OCc1ccc(C(F)(F)F)cc1)C2 (centres unmarked) [Example 45, 9-(5-(((4-(Trifluoromethyl)benzyl)oxy)carbonyl)-4,5,6,7-tetrahydropyrazolo[1,5-a]pyrazine-2-carbonyl)-9-azabicyclo[3.3.1]nonane-3-carboxylic acid] | ≤ 250 nM
9 | CC1COCCN1CC(=O)c1cc2n(n1)CCCN(C(=O)OCc1cc(Cl)cc(C(F)(F)F)c1)C2 (centres unmarked) [Example 257, 3-chloro-5-(trifluoromethyl)benzyl 2-(2-(3-methylmorpholino)acetyl)-7,8-dihydro-4H-pyrazolo[1,5-a][1,4]diazepine-5(6H)-carboxylate] | ≤ 100 nM
10 | O=C(O)C1CC2CCCC(C1)N2C(=O)c1cc2n(c1)CCCN(C(=O)OCc1cc(Cl)cc(Cl)c1)C2 (centres unmarked) [Example 103] | ≤ 100 nM
11 | C[C@H]1CNC[C@H](C)N1C(=O)c1cc2n(n1)CCCN(C(=O)OCc1cc(C(F)(F)F)cc(C(F)(F)F)c1)C2 [Example 247] | ≤ 100 nM
12 | O=C(OCc1cc(Cl)cc(C(F)(F)F)c1)N1CCCn2nc(CNC3=NCCN3)cc2C1 [Example 154, 3-chloro-5-(trifluoromethyl)benzyl 2-(((4,5-dihydro-1H-imidazol-2-yl)amino)methyl)-7,8-dihydro-4H-pyrazolo[1,5-a][1,4]diazepine-5(6H)-carboxylate] | ≤ 250 nM
13 | O=C(OCc1cc(C(F)(F)F)cc(C(F)(F)F)c1)N1CCn2nc(C(=O)N3CCC(O)CC3)cc2C1 [Example 490] | ≤ 100 nM
14 | CN1CCN(c2cc3n(n2)CCCN(C(=O)OCc2cc(C(F)(F)F)cc(C(F)(F)F)c2)C3)CC1 [Example 338, 3,5-bis(trifluoromethyl)benzyl 2-(4-methylpiperazin-1-yl)-7,8-dihydro-4H-pyrazolo[1,5-a][1,4]diazepine-5(6H)-carboxylate] | ≤ 100 nM
15 | CCCNC(=O)c1cc2n(n1)CCN(C(=O)OCc1cc(C(F)(F)F)cc(C(F)(F)F)c1)C2 [Example 481] | ≤ 100 nM
16 | O=C(OCc1cc(C(F)(F)F)cc(C(F)(F)F)c1)N1CCn2nc(N3CCNCC3)cc2C1 [Example 394, 3,5-bis(trifluoromethyl)benzyl 2-(piperazin-1-yl)-6,7-dihydropyrazolo[1,5-a]pyrazine-5(4H)-carboxylate] | ≤ 100 nM
17 | O=C(OCc1cc(Cl)cc(C(F)(F)F)c1)N1CCCn2nc(C(=O)N3CC4CCC3CN4)cc2C1 (centres unmarked) [Example 197] | ≤ 100 nM
18 | O=C(O)C1CC2CCCC(C1)N2C(=O)c1cc2n(n1)CCCN(C(=O)OCc1cccc(Cl)c1)C2 (centres unmarked) [Example 57, 9-(5-((3-Chlorobenzyloxy)carbonyl)-5,6,7,8-tetrahydro-4H-pyrazolo[1,5-a][1,4]diazepine-2-carbonyl)-9-aza-bicyclo[3.3.1]nonane-3-carboxylic acid] | ≤ 250 nM
19 | CCOC(=O)c1nn2c(c1Cl)CN(C(=O)OCc1cc(C(F)(F)F)cc(C(F)(F)F)c1)CCC2 [Example 108, 5-(3,5-Bis(trifluoromethyl)benzyl) 2-ethyl 3-chloro-7,8-dihydro-4H-pyrazolo[1,5-a][1.4]diazepine-2,5(6H)-dicarboxylate] | ≤ 100 nM
20 | O=C(O)C1CN(C(=O)OCc2cc(C(F)(F)F)cc(C(F)(F)F)c2)Cc2ccnn2C1 (centres unmarked) [Example 415] | ≤ 250 nM
21 | O=C(OCc1cc(C(F)(F)F)cc(C(F)(F)F)c1)N1CCn2nc(C(=O)N3CC(O)C3)cc2C1 [Example 483] | ≤ 100 nM
22 | Cc1nnc(-c2cc3n(n2)CCCN(C(=O)OCc2cc(C(F)(F)F)cc(C(F)(F)F)c2)C3)o1 [Example 119, 3,5-Bis(trifluoromethyl)benzyl 2-(5-methyl-1,3,4-oxadiazol-2-yl)-7,8-dihydro-4H-pyrazolo[1,5-a][1,4]diazepine-5(6H)-carboxylate] | ≤ 100 nM

Row | SMILES | IC50
23 | CNC1CN(C(=O)c2cc3n(n2)CCCN(C(=O)OCc2cc(Cl)cc(C(F)(F)F)c2)C3)C1 [Example 202] | ≤ 100 nM
24 | O=C(OCc1cc(C(F)(F)F)cc(C(F)(F)F)c1)N1CCCn2nc(N3CCCNCC3)cc2C1 [Example 342] | ≤ 100 nM
25 | CC(O)c1cc2n(n1)CCN(C(=O)OCc1cc(C(F)(F)F)cc(C(F)(F)F)c1)C2 (centres unmarked) [Example 396, 3,5-bis(Trifluoromethyl)benzyl 2-(1-hydroxyethyl)-6,7-dihydropyrazolo[1,5-a]pyrazine-5(4H)-carboxylate] | ≤ 100 nM
26 | CN1CCN(C(=O)c2cc3n(n2)CCCN(C(=O)OCc2cc(C(F)(F)F)cc(C(F)(F)F)c2)C3)C2(CC2)C1 [Example 220] | ≤ 100 nM
27 | O=C(OCc1cc(Cl)cc(Cl)c1)N1CCCn2nc(C(=O)N3CCCCC3)cc2C1 [Example 19, 3,5-Dichlorobenzyl 2-(piperidine-1-carbonyl)-7,8-dihydro-4H-pyrazolo[1,5-a][1,4]diazepine-5(6H)-carboxylate] | ≤ 100 nM
28 | O=C(O)C1CC2CCC(C1)N2Cc1cc2n(n1)CCCN(C(=O)OCc1cc(C(F)(F)F)cc(C(F)(F)F)c1)C2 (centres unmarked) [Example 296] | ≤ 250 nM
29 | CN(C)C(=O)c1cc2n(n1)CCN(C(=O)OCc1cc(C(F)(F)F)cc(C(F)(F)F)c1)C2 [Example 480] | ≤ 250 nM
30 | O=C(OCc1cc(C(F)(F)F)cc(C(F)(F)F)c1)N1CCCn2nc(N3CCCCC3=O)cc2C1 [Example 328, 3,5-bis(trifluoromethyl)benzyl 2-(2-oxopiperidin-1-yl)-7,8-dihydro-4H-pyrazolo[1,5-a][1,4]diazepine-5(6H)-carboxylate] | ≤ 100 nM
31 | CN1CCN(c2cc3n(n2)CCN(C(=O)OCc2cc(C(F)(F)F)cc(C(F)(F)F)c2)C3)CC1 [Example 393, 3,5-bis(Trifluoromethyl)benzyl 2-(4-methylpiperazin-1-yl)-6,7-dihydropyrazolo[1,5-a]pyrazine-5(4H)-carboxylate] | ≤ 100 nM
32 | O=C(OCc1cc(C(F)(F)F)cc(C(F)(F)F)c1)N1CCn2nc(C(=O)N3C4CCC3CNC4)cc2C1 [Example 426] | ≤ 100 nM
33 | CCOC(=O)c1nn2c(c1Cl)CN(C(=O)OCc1cc(C(F)(F)F)cc(C(F)(F)F)c1)CC2 [Example 112, 5-(3,5-Bis(trifluoromethyl)benzyl) 2-ethyl 3-chloro-6,7-dihydropyrazolo[1,5-a]pyrazine-2,5(4H)-dicarboxylate] | ≤ 250 nM
34 | O=C(O)C1CC2CCCC(C1)N2C(=O)c1cc2n(n1)CCN(C(=O)OCc1cc(C(F)(F)F)cc(C(F)(F)F)c1)C2 (centres unmarked) [Example 48, 9-(5-(((3,5-Bis(trifluoromethyl)benzyl)oxy)carbonyl)-4,5,6,7-tetrahydropyrazolo[1,5-a]pyrazine-2-carbonyl)-9-azabicyclo[3.3.1]nonane-3-carboxylic acid] | ≤ 100 nM
35 | CN1CCN(C(=O)c2cc3n(n2)CCN(C(=O)OCc2cc(Cl)cc(C(F)(F)F)c2)C3)C(C)(C)C1 [Example 495] | ≤ 100 nM
36 | O=C(OCc1cc(Cl)cc(C(F)(F)F)c1)N1CCCn2nc(C(=O)N3CCC4CNCC43)cc2C1 (centres unmarked) [Example 165] | ≤ 100 nM
37 | O=C(OCc1cc(C(F)(F)F)cc(C(F)(F)F)c1)N1CCCn2nc(C3CCCNC3)cc2C1 (centres unmarked) [Example 380] | ≤ 100 nM
38 | CC(C)C(Nc1cc2n(n1)CCCN(C(=O)OCc1cc(C(F)(F)F)cc(C(F)(F)F)c1)C2)C(=O)O (centres unmarked) [Example 363] | ≤ 100 nM
39 | O=C(CN1CC(C(=O)O)C1)c1cc2n(n1)CCCN(C(=O)OCc1cc(Cl)cc(C(F)(F)F)c1)C2 [Example 272] | ≤ 100 nM
40 | CN1C2CCC1CN(C(=O)c1cc3n(n1)CCCN(C(=O)OCc1cc(Cl)cc(C(F)(F)F)c1)C3)C2 [Example 201] | ≤ 100 nM
41 | CCN1CCN(C(=O)c2cc3n(n2)CCCN(C(=O)OCc2cc(Cl)cc(C(F)(F)F)c2)C3)C2(CC2)C1 [Example 179] | ≤ 100 nM
42 | CCC1CN(c2cc3n(n2)CCCN(C(=O)OCc2cc(C(F)(F)F)cc(C(F)(F)F)c2)C3)CCN1 (centres unmarked) [Example 341] | ≤ 100 nM
43 | O=C(O)C1CC2CCC(C1)N2C(=O)c1cc2n(n1)CCN(C(=O)CCc1cc(Cl)cc(Cl)c1)C2 (centres unmarked) [Example 93, 8-(5-(3-(3,5-Dichlorophenyl)propanoyl)-4,5,6,7-tetrahydropyrazolo[1,5-a]pyrazine-2-carbonyl)-8-azabicyclo[3.2.1]octane-3-carboxylic acid] | ≤ 500 nM
44 | CC(CO)NC(=O)c1cc2n(n1)CCN(C(=O)OCc1cc(C(F)(F)F)cc(C(F)(F)F)c1)C2 (centres unmarked) [Example 472] | ≤ 100 nM
